Literature values in US7648982B2 (priority 2003, dated 2010).

Experiments:
[1] = in vivo
[2] = in vivo, iv

In the case of `CN1CC[C@]23c4c5ccc(O)c4O[C@H]2[C@@H](O)C=C[C@H]3[C@H]1C5` [morphine], the K10 [1] is given as “Morphine_K10 = 0.07051”, the K12 [1] is given as “Morphine_K12 = 0.1273” and the K13 [1] is given as “Morphine_K13 = 0.01826”. The K21 [1] was “Morphine_K21 = 0.02596”, the K31 [1] was “Morphine_K31 = 0.001633” and the Ke0 [1] was “Morphine_Ke0 = 0.005”. For the same compound, the V1 [1] was “Morphine_V1 = 17.8” and the “delay of peak drug effect from the time of injection” value [2] was 10 to 15 min.
